Reference: paper PMC9838653 (Biochemistry, 2022)

Target: C4-reductase from serotype HS:15 (HS:15) (Campylobacter jejuni, UniProt F2X7A6)
Test: X-ray crystal structure, […] A
Format: binding
Settings: co-crystallised with 5 mM NADPH and 5 mM GDP; pH 7.5; active site

SMILES	X-ray crystal structure, 1.45 A
NC(=O)C1=CN([C@@H]2O[C@H](COP(=O)(O)OP(=O)(O)OC[C@H]3O[C@@H](n4cnc5c(N)ncnc54)[C@H](OP(=O)(O)O)[C@@H]3O)[C@@H](O)[C@H]2O)C=CC1 [NADPH]	the corresponding electron densities for the GDP and NADPH ligands were unambiguous
Nc1nc2c(ncn2[C@@H]2O[C@H](COP(=O)(O)OP(=O)(O)O)[C@@H](O)[C@H]2O)c(=O)[nH]1 [GDP]	the corresponding electron densities for the GDP and NADPH ligands were unambiguous
